According to publication PMC5244392, “Interspecies cathelicidin comparison reveals divergence in antimicrobial activity, TLR modulation, chemokine induction and regulation of phagocytosis” (Scientific Reports, 2017):

Experiments:
S. aureus = test: MBC by plating wells without visible growth, S. aureus; type: cell-based, Staphylococcus aureus; conditions: S. aureus in DMEM; results not shown
Procedure: In order to compare our Cmax with MBC values, wells without visible bacterial growth were plated out on TSA plates and incubated o/n at 37 °C to determine the presence of viable bacteria.
The antimicrobial capacities were tested under the same conditions and expressed as growth delay instead of the more classical MIC/MBC determination using broth dilution assays. […] The fact that DMEM medium makes S. aureus susceptible to PR-39 is surprising since this peptide is thought to require active uptake by the SbmA transporter, only present in Gram – bacteria. The results obtained in this work, might indicate that the peptide possibly switches to a different mechanism of action with initially a bacteriostatic effect, but more thorough studies are required to elucidate the details of these initial observations.

RAW264.7 cells = test: Cytotoxicity (WST-1 mitochondrial activity, PI staining); type: cell-based, murine; conditions: 24 h, peptide 0.08-20 μM; WST-1 and PI staining
Procedure: WST-1 reagent was obtained from Roche (Basel, Switzerland). RAW264.7 cells were incubated with cathelicidins for 24 h, after which the supernatant was removed and replaced with 10% WST-1 reagent in culture medium. After 20 minutes, absorbance was measured at 450 nm with a FLUOstar Omega microplate reader (BMG Labtech GmbH, Ortenberg, Germany) and was corrected for absorbance at 630 nm. Non-treated control cells were defined as 100% mitochondrial activity.
In addition, cells were detached after peptide exposure and stained with propidium iodide (PI) (BD bioscience, San Jose, CA, USA). Percentages of PI positive (i.e. dead) cells were determined with flow cytometry (BD FACSCanto II flow cytometer (BD Biosciences)) and analyzed with FlowJo software (Ashland, OR, USA). […]
Supplementary Figure 3: Cytotoxicity of cathelicidins on RAW264.7 cells
(A) RAW264.7 cells were incubated for 24 hours with diﬀerent cathelicidins (0.08 µM, 0.31 µM, 1.25 µM, 5 µM, and 20 µM), after which they were incubated with WST-1 reagent for 20 minutes to measure the mitochondrial activity. No peptide control was set to 100% mitochondrial activity. Dotted line represents 80% mitochondrial activity. Results are presented as average +/- SEM (N = 4).
(B) RAW264.7 cells were incubated with diﬀerent cathelicidins (0.31 µM, 1.25 µM, 5 µM, and 20 µM). Cells were stained for PI to detect dead cells. […]

Row | Substance | Fold higher MBC than Cmax (S. aureus) | Cytotoxicity to RAW264.7 cells, in words (RAW264.7 cells)
1 | RRRPRPPYLPRPRPPPFFPPRLPPRIPPGFPPRFPPRFP [PR-39, porcine proline-rich cathelicidin forming a polyproline helix, 39 residues, charge +10] | 16 fold | –
2 | Ac-GRFRRLRKKTRKRLKKIGKVLKWIPPIVGSIPLGCG [PMAP-36, porcine α-helical cathelicidin, N-acetylated, 36 residues, charge +13] | – | some cytotoxicity, but only at the highest concentration
